Where a name gives a salt, the structure may show the parent alone.
Experiments:
5-HT1Dβ receptor [1] = target: T1, 5-HT1Dβ receptor (Homo sapiens, UniProt P28222); assay: biochemical; format: binding; details: for 5-HT1Dβ/5HT1A: selectivity ratio, 5-HT1A binding with 3H-8-OH-DPAT, 5-HT1Dβ with 3H-5HT; for Ki: 3H-5HT, membranes of recombinant cells, 15 minute incubation at 37°C
T1 construct: expressed in transfected cells
Method: Increasing levels of the test compound were incubated with the radioligand and the membrane homogenates prepared from the recombinant cells. After a 15 minute incubation at 37°C, the incubation was terminated by vacuum filtration. The filters were washed with buffer and the filters were counted for radioactivity using liquid scintillation spectrometry.

5-HT1Dβ receptor [2] = target: T1, 5-HT1Dβ receptor; assay: Inhibition of forskolin-stimulated adenylate cyclase (cAMP radioimmunoassay) in 5-HT1Dβ-presenting CHO cells; format: cell-based
Method: CAMP levels were determined using a radioimmunoassay kit containing antibody specific for cAMP and radioiodinated cAMP. The amount of the compound that inhibited 50% of the forskolin-stimulated adenylate cyclase activity was determined from the inhibition curve data subjected to computer assisted analysis (Figure 1).

T1 sequence (P28222 whole entry): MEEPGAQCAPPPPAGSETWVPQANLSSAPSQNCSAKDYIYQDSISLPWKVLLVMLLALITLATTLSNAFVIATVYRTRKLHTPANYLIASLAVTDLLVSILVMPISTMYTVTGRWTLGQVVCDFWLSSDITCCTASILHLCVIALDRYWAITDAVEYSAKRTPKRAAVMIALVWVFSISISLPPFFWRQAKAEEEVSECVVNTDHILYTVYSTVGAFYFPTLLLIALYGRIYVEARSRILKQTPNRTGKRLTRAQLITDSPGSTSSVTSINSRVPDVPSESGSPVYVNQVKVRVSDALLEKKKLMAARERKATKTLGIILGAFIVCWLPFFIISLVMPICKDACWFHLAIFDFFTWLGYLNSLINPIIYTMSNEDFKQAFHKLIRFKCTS

Row | SMILES | 5-HT1Dβ/5HT1A (5-HT1Dβ receptor [1]) | EC50 (5-HT1Dβ receptor [2]) [nM] | inhibition at 0.001 µM (5-HT1Dβ receptor [2]; CHO, read-out: % Inhib. cAMP) [%] | inhibition at 0.01 µM (5-HT1Dβ receptor [2]; CHO, read-out: % Inhib. cAMP) [%] | inhibition at 0.1 µM (5-HT1Dβ receptor [2]; CHO, read-out: % Inhib. cAMP) [%] | inhibition at 1 µM (5-HT1Dβ receptor [2]; CHO, read-out: % Inhib. cAMP) [%] | Ki (5-HT1Dβ receptor [1]) [nM]
1 | CCCCCCCCCOc1ccc2[nH]cc(CCN)c2c1 [Example 4, 3-(2-aminoethyl)-5-nonyloxyindole oxalate] | 260 |  |  |  |  |  | 
2 | Cl.NCCc1c[nH]c2ccc(OCCCCCCCCO)cc12 [Example 5, 3-(2-aminoethyl)-5-(8-hydroxyoctyloxy)-indole hydrochloride] | 119 | 200 | 0 | 11 | 33 | 92 | 0.3
3 | CCOCCCCCCOc1ccc2[nH]cc(CCN)c2c1 [Example 8, 3-(2-aminoethyl)-5-(6-ethyloxyhexyloxy)-indole hydrochloride] | 180 |  |  |  |  |  | 0.4
4 | CCCCOCCCCOc1ccc2[nH]cc(CCN)c2c1 [Example 9, 3-(2-aminoethyl)-5-(4-butyloxybutyloxy)-indole hydrochoride] | 30 |  |  |  |  |  | 2.5

Source: patent EP0666847B1 (priority 1993, dated 1995)
